In publication PMC10307035, “Antiviral activity of singlet oxygen-photogenerating perylene compounds against SARS-CoV-2: Interaction with the viral envelope and photodynamic virion inactivation” (Virus Research, 2023):

Tests used:
[1] = system: SARS-CoV-2 (Wuhan variant); experiment: Viral membrane interaction study (virus pre-treatment at 37 °C or 4 °C); type: cell-based; conditions: 10 µM; for virus' viability after pre-treatment at 4 °C (assay B): 1 h at 4 °C; for virus' ability to form plaques after pre-treatment at 37 °C (assay A): 1 h at 37 °C
[2] = system: SARS-CoV-2 (Wuhan variant); experiment: Quantification of viral RNA synthesis by RT-qPCR; type: cell-based; conditions: 10 µM, Vero cells, 48 h
[3] = system: SARS-CoV-2 (Wuhan variant); experiment: Fusion assay; conditions: for reduction in plaque numbers (fusion assay): 1 and 10 µM, compounds added after virus attachment at 4 °C, then 37 °C

SMILES | virus' viability after pre-treatment at 4 °C (assay B) [1] | virus' ability to form plaques after pre-treatment at 37 °C (assay A) [1] | synthesis of viral genomic RNA [2] | reduction in plaque numbers (fusion assay) [3] | cytotoxicity to Vero cells in the fusion assay ([3]; 10 µM)
CC(C)(C)C(=O)OCn1c(=O)c(C#Cc2ccc3c4cccc5cccc(c6cccc2c63)c54)cn(CC(=O)N(CCO)CCO)c1=O [Compound 13] | partially restored | completely inhibited | suppressed the synthesis of viral genomic RNA | statistically significant reduction in plaque numbers | –
O=c1[nH]c(=O)n([C@H]2C[C@H](O)[C@@H](CO)O2)cc1C#Cc1ccc2c3cccc4cccc(c5cccc1c52)c43 [Compound 2, 5-(perylen-3-yl)ethynyl-2′-deoxy-uridine] | partially restored | completely inhibited | suppressed the synthesis of viral genomic RNA | significantly decreased plaque counts only at 10 µM | –
O=C(NCCCCO)c1ccc(-c2ccc3c4cccc5cccc(c6cccc2c63)c54)s1 [Compound 17] | partially restored | completely inhibited | suppressed the synthesis of viral genomic RNA | statistically significant reduction in plaque numbers | observable cytotoxicity
